Patent US10512641B2, “Chloroquine induction par-4 and treatment of cancer” (University of Kentucky Research Foundation, priority 2015, dated 2019)

Legend:
cancer cells [1] = assay: Ex vivo apoptosis of cancer cells by post-HCQ patient serum; type: cell-based, human; settings: PC-3, H460, HOP92, H1299; 20% serum, 24 h; relative to pre-HCQ serum
Procedure: (§1) Aliquots of pre-HCQ or post-HCQ treatment serum samples from the patient were transferred to cancer cell cultures (20% final concentration). After 24 h, the cells were scored for apoptosis by ICC for active caspase-3. Fetal bovine serum (FBS, 10%) was used as an additional control. An asterisk (*) indicates statistical significance (P<0.001) by the Student's t-test. […] Importantly, apoptosis of cancer cells by post-treatment serum from the patient was neutralized by the Par-4 antibody (P) or GRP78 antibody (G), but not by control antibody (C) (FIG. 2E).

Par-4 [2] = assay: Par-4 in serum of renal cell carcinoma patients given HCQ, Western blot; type: in vivo, human
Procedure: Serum samples were collected from renal cell carcinoma patients who were given safe oral doses (400 mg daily for 2-weeks) of HCQ pre-operatively at the University of Pittsburgh, as part of a clinical trial in 2010-2011. Pre-HCQ treatment and post-HCQ treatment serum samples were collected and frozen. In 2013-2014, they were processed by Western blot analysis.
as §1

Par-4 [3] = assay: Par-4 secretion in wild type or p53-null MEFs, Western blot; type: cell-based, mouse; settings: CQ 25 μM, Arylquin-1, Nutlin-3a 10 μM, 24 h
Par-4 [4] = settings: Burikhanov et al. (2014); cited from earlier work
Par-4 [5] = assay: Par-4 secretion from MEFs treated with chloroquine, curcumin, ibuprofen or combinations; type: cell-based, mouse; settings: 24 h
Procedure: To determine whether curcumin or ibuprofen enhanced the secretion of Par-4 in cells treated with chloroquine, MEFs were treated with chloroquine (25 μM), curcumin (5 μM and 10 μM) or ibuprofen (500 μM or 750 μM) or combinations of chloroquine and curcumin or ibuprofen for 24 hours at 37° C.
(§2) The conditioned medium (CM), as well as the whole-cell lysates, were subjected to Western blot analysis with the antibodies specific for Par-4, Collagen (Col1A1), albumin, or actin. Col1A1 served as a loading control for protein secretion, as it is generally unchanged in response to the treatments. The samples were also subjected to SDS/PAGE and Coomassie blue staining to determine albumin levels in serum from the CM as another loading control.

cancer cells [6] = assay: Apoptosis (ICC for active caspase-3) of cells exposed to CQ-treated MEFs or their CM; type: cell-based, human
Procedure: After 24 h, the cells were subjected to immunocytochemistry (ICC) for active caspase-3 and apoptotic cells were scored under a fluorescent microscope.
After 24 h, the cells were scored for apoptosis.
A total of three independent experiments were performed; and approximately 500 cells were scored in each experiment for apoptosis under a fluorescent microscope.

Par-4 [7] = assay: Par-4 secretion in Rab8b-null and Rab8b reconstituted MEFs; type: cell-based, mouse
Procedure: (§3) Testing was performed to determine whether the expression of Rab genes containing putative p53 binding sites in their promoter region were essential for Par-4 secretion.

Par-4 [8] = assay: Par-4 secretion in conditioned medium of prostate and lung cancer cell lines, Western blot; type: cell-based, human; settings: prostate cancer cells LNCaP, C4-2B, DU145, PC-3; CQ 1-100 μM, 24 h
Description: as §2, with “lysates” for “lysates,”

p53 [9] = system: p53
Par-4 [10] = assay: Par-4 secretion in conditioned medium of normal human cells, Western blot; type: cell-based; settings: normal human PrSC, PrEC, HEL, HBEC; CQ 1-100 μM, 24 h
Description: as §2, with “lysates” for “lysates,”

Rab8b = Rab8b and Rab8a expression (protein, real-time PCR); type: cell-based
Procedure: as §3
The guardian of the genome, p53 binds to a consensus motif 5′-PuPuPuC4(A/T)(A/T)G7PyPyPy

p53 [11] = settings: MEFs, CQ 25 μM, 24 h
Par-4 [12] = assay: Par-4 secretion in conditioned medium of MEFs, Western blot; type: cell-based, mouse; settings: wild type (p53+/+) MEFs; CQ 1-100 μM, 24 h
Description: as §2, with “lysates” for “lysates,”

A549 lung cancer cells = settings: A549 cells, 0, 2, 4 Gy, CQ 10 μM or 20 μM
Par-4 [13] = assay: Par-4 mRNA by qRT-PCR in MEFs; type: cell-based, mouse; settings: CQ 25 μM, 24 h, normalized to GAPDH
Description: The data were normalized relative to a GAPDH control. (see FIG. 8C).

LLC1 cells = assay: Apoptosis of LLC1 cells by CM from CQ-treated MEFs; type: cell-based, mouse; settings: CQ 20 μM, 24 h; not with Par-4-/- MEFs
Procedure: After 24 h, the cells were scored for apoptosis. *P<0.0001 by the Student's t-test.

UACA = UACA and NF-κB-regulated gene expression, Western blot; type: cell-based; settings: for expression of UACA: 24 h
Description: (§4) The CM and lysates were examined by Western blot analysis with the indicated antibodies.

[14] = system: Mel 1617 and Mel 1617BR melanoma cancer cells; settings: CQ 1 μM or 5 μM, 0 and 4 Gy
Par-4 [15] = assay: ICC analysis of Par-4 localization in Rab8b coated vesicles; type: cell-based
Procedure: An immunocytochemical (ICC) analysis was performed to determine the localization of Par-4 in Rab8b coated vesicles.

H460 or LLC1 cells = assay: Subcutaneous H460 or LLC1 tumor xenografts in nude mice; type: in vivo, mouse; settings: LLC1- or H460-derived flank tumors, CQ 25 mg/kg IP once daily
Par-4 [16] = assay: BFA sensitivity of CQ-induced Par-4 in MEFs; type: cell-based, mouse; settings: MEFs pre-treated with BFA 10 μg/ml 30 minutes, then CQ 50 μM 5 h
Description: as §4

## CCN(CCO)CCCC(C)Nc1ccnc2cc(Cl)ccc12 (stereo not drawn) [HCQ, hydroxychloroquine]
Cancer cells [1]
  ex vivo apoptosis of cancer cells with post-HCQ treatment serum: underwent apoptosis
Par-4 [2]; one renal cell carcinoma patient, HCQ 400 mg daily for 2 weeks
  induction of Par-4 in patient serum following HCQ treatment: ~3 fold
Par-4 [2]; renal cell carcinoma patients, HCQ 400 mg daily oral for 2 weeks, post vs pre treatment
  Par-4 levels in patient serum: elevated levels of Par-4 relative to pre-treatment levels

## COc1ccc(C2=N[C@@H](c3ccc(Cl)cc3)[C@@H](c3ccc(Cl)cc3)N2C(=O)N2CCNC(=O)C2)c(OC(C)C)c1 [Nutlin-3a]
Par-4 [3]
  Par-4 secretion: induced Par-4 secretion in a p53-dependent manner
Par-4 [4]
  secretion of Par-4 from normal cells in mice: can increase secretion of Par-4

## COc1cc(/C=C/C(=O)CC(=O)/C=C/c2ccc(O)c(OC)c2)ccc1O [curcumin]
Par-4 [5]; curcumin alone 5 μM and 10 μM
  Par-4 secretion: enhances Par-4 secretion

## O=C(Nc1cc(Cl)cc2c1[nH]c1cnccc12)c1cccnc1 [PS-1145]
Par-4 [4]
  secretion of Par-4 from normal cells in mice: can increase secretion of Par-4
Cancer cells [6]; A549 cells pretreated with PS-1145 10 μM, 24 h
  apoptosis of A549 cells by CM from CQ-treated MEFs: sensitized to apoptosis

## CC(C)Cc1ccc(C(C)C(=O)O)cc1 (stereo not drawn) [ibuprofen]
Par-4 [5]; ibuprofen 750 μM with chloroquine 25 μM
  secretion of Par-4 compared with chloroquine alone: significantly improves the secretion of Par-4
Par-4 [5]; ibuprofen alone 500 μM or 750 μM
  production or secretion of Par-4: does not enhance the production or secretion of Par-4

## CCN(CC)CCCC(C)Nc1ccnc2cc(Cl)ccc12 (stereo not drawn) [CQ, chloroquine diphosphate]
Par-4 [7]; Rab8b-null MEF cells (not Rab8a-null MEF cells)
  induction of Par-4 secretion: failed to show induction of Par-4 secretion
Par-4 [7]; Rab8b-null MEFs transfected with mouse Rab8b expression construct
  Par-4 secretion: induced Par-4 secretion in Rab8b reconstituted cells
Par-4 [8]
  Par-4 secretion: neither induced Par-4 secretion
p53 [9]; MEFs and normal mouse lung tissues
  p53-responsive genes p21 and PIG3: upregulation of p53-responsive genes p21 and PIG3
p53 [9]; cancer cells
  p53 induction: neither induced p53
Par-4 [10]
  secretion of Par-4 in the CM: dose-dependent secretion of Par-4
Rab8b; cancer cells
  Rab8b induction: not in cancer cells
Rab8b; normal human cells
  Rab8b induction: induced Rab8b in normal human cells
Rab8b; p53 wild type cells
  Rab8b protein levels: enhanced Rab8b protein levels
Rab8b; quantitative real-time PCR
  Rab8b mRNA: induced Rab8b mRNA in a p53-dependent manner
Rab8b; wild type MEFs
  Rab8a expression: not Rab8a expression
  Rab8b expression: induced Rab8b expression
p53 [11]
  p53-dependent transcription: increased p53-dependent transcription
Par-4 [12]
  secretion of Par-4 in the CM: dose-dependent secretion of Par-4
A549 lung cancer cells
  inhibition of growth and proliferation, radiation plus CQ: greater than additive effect
Par-4 [13]
  Par-4 RNA level: did not induce Par-4 at the RNA level
LLC1 cells
  apoptosis of LLC1 cells by CM from CQ-treated Par-4+/+ MEFs: induced apoptosis of LLC1 cells
UACA; MEF and HEL, CQ 25 μM
  expression of UACA: inhibited the expression of UACA
UACA; cancer cells
  UACA downregulation: failed to downregulate UACA
UACA; p53-dependent, wild type vs p53-/- MEFs, CQ 25 μM
  expression of UACA and NF-κB-regulated genes cIAP1 and XIAP: inhibited the expression of UACA and NF-κB-regulated genes cIAP1 and XIAP
UACA; p53 null MEFs, CQ 25 μM
  expression of UACA: not p53 null MEFs
[14]
  inhibition of growth and proliferation, CQ plus ionizing radiation: greater than additive effect
Par-4 [15]; relative to vehicle
  co-localization of Par-4 with Rab8b containing vesicles: increase in the co-localization
Cancer cells [6]; DU145, A549 cells (internal control), CQ 20 μM
  apoptosis of Par-4-resistant cancer cells with CQ-treated Par-4+/+ MEFs: resistant to apoptosis
Cancer cells [6]; PC-3, H460, H1299, HOP92, KP7B cells, CQ 20 μM, not with Par-4-/- MEFs
  apoptosis of cancer cells co-cultured with CQ-treated Par-4+/+ MEFs: sensitive to apoptosis
Cancer cells [6]; inhibited by Par-4 antibody or GRP78 antibody
  cancer cell apoptosis by CM of CQ-treated Par-4+/+ MEFs: Cancer cell apoptosis was also induced
Cancer cells [6]; normal HEL cells, CQ 20 μM
  apoptosis of normal cells co-cultured with CQ-treated Par-4+/+ MEFs: not normal HEL cells
H460 or LLC1 cells
  growth of subcutaneous tumor xenografts (tumor volume): failed to inhibit the growth

## C[C@H]1CCC/C=C/[C@@H]2C[C@H](O)C[C@H]2[C@H](O)/C=C/C(=O)O1 [BFA]
Par-4 [16]
  effect on CQ-induced Par-4 expression: CQ-induced Par-4 expression was inhibited
Par-4 [15]; CQ-treated cells plus BFA
  entry of Par-4 into Rab8b vesicles: prevented Par-4 from entering the Rab8b vesicles

## CN(C)c1ccc2cc(-c3ccccc3F)c(N)nc2c1 [Arylquin-1]
Par-4 [3]
  Par-4 secretion: robust induction of Par-4 secretion
Par-4 [4]
  secretion of Par-4 from normal cells in mice: can increase secretion of Par-4
